Assay [1] has as its system breast cancer cell line, SK-Br3. As to the kind of experiment: Inhibitory effect on growth of cancer cell line SK-Br3, SRB. The following applies: overexpressed EGFR2 (HER-2). Type of assay: cell-based. A digest of the protocol:
(§1)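 Growth inhibition was measured by sulforhodamine-B staining (absorbance 570 nm) of TCA-fixed cells after 72 h compound exposure at 37 °C, 5% CO2. Test concentrations ran from 10 μM in 10-fold steps to 10^−4, with DMSO below 1%, in 10% FBS DMEM.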

Assay [2] has as its system skin cancer cell line, A431. In words: Inhibitory effect on growth of cancer cell line A431, SRB. Type of assay: cell-based. As to conditions: overexpressed EGFR1 (HER-1). A digest of the protocol:
as §1

Another assay deals with VEGFR2 (KDR) (Homo sapiens (Human), UniProt P35968). In words: VEGFR2 (KDR) enzyme assay, fluorescence polarization. In kind it is biochemical. The following applies: 5 μM ATP, poly(Glu, Tyr) substrate. In outline:
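Buffer: 20 mM HEPES pH 7.4 with 5 mM MgCl2, 2 mM MnCl2 and 50 μM Na3VO4. Compound (0.0001–10 μM) was premixed 10 min with VEGFR2 (200 ng/10 μl), then poly(Glu,Tyr) substrate (10 ng/ml) and 5 μM ATP were added for 1 h at room temperature. EDTA-quenched samples were read by FP after 30 min with antibody and tracer.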
For orientation: Polarisation of emitted light reports the rotation of a fluorescent probe.

Assay [3] concerns Human Umbilical Vein Endothelial Cell (HUVEC). In words: Inhibitory effect on growth of human umbilical vein endothelial cell (HUVEC), MTS. In kind it is cell-based. The following applies: 10 ng/ml VEGF, absorbance 490 nm.
Assay [4] relates to colon and rectal cancer cell line, SW-620. In words: Inhibitory effect on growth of cancer cell line SW-620, SRB. Type of assay: cell-based. The following applies: not having overexpressed EGFR and EGFR2. In outline: as §1
The next assay concerns the target EGFR1 (HER-1) (Homo sapiens (Human), UniProt P00533). In words: EGFR1 (HER-1) enzyme assay, fluorescence polarization. As to conditions: 100 μM ATP, poly(Glu, Tyr) substrate. In kind it is biochemical.

Sequence of VEGFR2 (KDR) (P35968 20-1356): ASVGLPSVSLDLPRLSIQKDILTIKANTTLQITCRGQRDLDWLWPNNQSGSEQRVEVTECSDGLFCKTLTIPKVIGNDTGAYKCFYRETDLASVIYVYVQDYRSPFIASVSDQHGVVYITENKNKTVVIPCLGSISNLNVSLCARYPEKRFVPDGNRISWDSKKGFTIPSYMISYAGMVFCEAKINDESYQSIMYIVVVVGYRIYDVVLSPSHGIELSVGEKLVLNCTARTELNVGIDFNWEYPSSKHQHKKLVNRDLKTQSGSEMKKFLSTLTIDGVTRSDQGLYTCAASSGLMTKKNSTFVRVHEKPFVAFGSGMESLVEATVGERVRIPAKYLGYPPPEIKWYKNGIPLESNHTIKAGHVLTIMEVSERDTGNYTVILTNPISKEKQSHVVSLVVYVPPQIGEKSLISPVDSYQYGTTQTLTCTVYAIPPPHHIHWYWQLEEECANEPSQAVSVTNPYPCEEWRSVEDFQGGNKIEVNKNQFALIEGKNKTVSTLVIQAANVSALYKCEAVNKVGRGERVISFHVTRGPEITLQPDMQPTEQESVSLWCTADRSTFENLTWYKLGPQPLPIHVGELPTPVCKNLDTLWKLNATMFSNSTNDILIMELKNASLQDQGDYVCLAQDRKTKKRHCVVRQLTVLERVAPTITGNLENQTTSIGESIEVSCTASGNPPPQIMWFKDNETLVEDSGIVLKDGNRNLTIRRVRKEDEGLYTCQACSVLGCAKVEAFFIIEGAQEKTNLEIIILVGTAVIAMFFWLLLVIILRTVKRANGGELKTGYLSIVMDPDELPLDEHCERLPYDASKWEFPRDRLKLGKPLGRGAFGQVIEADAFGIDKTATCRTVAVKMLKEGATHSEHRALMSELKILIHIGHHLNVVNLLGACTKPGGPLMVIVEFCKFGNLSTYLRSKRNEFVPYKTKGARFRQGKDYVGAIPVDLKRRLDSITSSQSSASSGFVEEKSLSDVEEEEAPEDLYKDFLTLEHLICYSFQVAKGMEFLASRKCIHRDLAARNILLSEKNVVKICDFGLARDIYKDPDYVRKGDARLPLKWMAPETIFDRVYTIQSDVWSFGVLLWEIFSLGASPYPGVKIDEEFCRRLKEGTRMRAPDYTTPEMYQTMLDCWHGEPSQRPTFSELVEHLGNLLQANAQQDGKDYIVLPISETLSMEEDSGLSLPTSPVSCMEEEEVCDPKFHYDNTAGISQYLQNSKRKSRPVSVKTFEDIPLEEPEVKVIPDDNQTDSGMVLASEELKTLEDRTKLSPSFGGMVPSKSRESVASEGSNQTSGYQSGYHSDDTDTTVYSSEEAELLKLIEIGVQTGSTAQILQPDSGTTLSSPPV
Sequence of EGFR1 (HER-1) (P00533 25-1210): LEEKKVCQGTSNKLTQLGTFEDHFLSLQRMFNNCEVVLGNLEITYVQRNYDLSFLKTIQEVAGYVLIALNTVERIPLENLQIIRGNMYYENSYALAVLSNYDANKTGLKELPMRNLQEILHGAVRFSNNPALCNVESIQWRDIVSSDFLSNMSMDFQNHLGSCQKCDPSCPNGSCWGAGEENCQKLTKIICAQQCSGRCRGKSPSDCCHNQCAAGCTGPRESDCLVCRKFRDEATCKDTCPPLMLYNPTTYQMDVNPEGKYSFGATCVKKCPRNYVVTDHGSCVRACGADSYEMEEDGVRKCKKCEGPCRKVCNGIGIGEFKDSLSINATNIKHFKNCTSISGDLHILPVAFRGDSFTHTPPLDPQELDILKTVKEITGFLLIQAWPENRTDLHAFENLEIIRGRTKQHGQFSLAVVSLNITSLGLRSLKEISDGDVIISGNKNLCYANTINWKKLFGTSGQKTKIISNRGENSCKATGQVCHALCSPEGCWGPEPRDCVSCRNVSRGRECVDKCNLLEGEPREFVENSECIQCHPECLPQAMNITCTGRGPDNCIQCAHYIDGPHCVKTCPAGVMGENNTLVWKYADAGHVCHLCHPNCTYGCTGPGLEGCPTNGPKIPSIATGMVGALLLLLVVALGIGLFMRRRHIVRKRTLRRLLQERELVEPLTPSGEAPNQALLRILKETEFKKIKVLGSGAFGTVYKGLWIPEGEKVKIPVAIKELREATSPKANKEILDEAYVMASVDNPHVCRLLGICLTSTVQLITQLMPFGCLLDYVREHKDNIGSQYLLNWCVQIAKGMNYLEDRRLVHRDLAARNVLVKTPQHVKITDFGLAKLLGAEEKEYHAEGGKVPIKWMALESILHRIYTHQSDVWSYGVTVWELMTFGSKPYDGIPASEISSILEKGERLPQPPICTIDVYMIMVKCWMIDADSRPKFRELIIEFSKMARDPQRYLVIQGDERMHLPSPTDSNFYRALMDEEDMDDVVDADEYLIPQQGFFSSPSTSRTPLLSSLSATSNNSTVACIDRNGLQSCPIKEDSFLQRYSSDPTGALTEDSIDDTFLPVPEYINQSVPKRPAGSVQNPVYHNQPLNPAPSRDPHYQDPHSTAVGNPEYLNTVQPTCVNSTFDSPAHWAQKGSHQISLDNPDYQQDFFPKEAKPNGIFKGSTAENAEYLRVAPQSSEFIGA

What is called IC50 is the concentration that gives 50% inhibition. In the case of `C=CC(=O)Nc1cc2c(Nc3ccc(Br)cc3F)ncnc2cc1OCCNC(=O)CS(C)(=O)=O` [Example 47, N-{4-(4-bromo-2-fluoro-phenylamino)-7-[2-(2-methanesulfonyl-acetylamino)-ethoxy]-quinazolin-6-yl}-acrylamide], the half-inhibitory concentration (IC50) in assay [1] (Homo sapiens, SK-BR-3, 72 h) came out at 67 nM; in assay [2] (Homo sapiens, A-431, 72 h) it was 27 nM; at VEGFR2 (KDR), 209 nM; in assay [3] (Homo sapiens, 96 h), 269 nM; in assay [4] (Homo sapiens, 72 h) it was 9.57 µM; against EGFR1 (HER-1), 24 nM.
Turning to `C=CC(=O)Nc1cc2c(Nc3ccc(Br)cc3F)ncnc2cc1OCCCNC` [Example 17, N-[4-(4-bromo-2-fluoro-phenylamino)-7-(3-methylamino-propoxy)-quinazolin-6-yl]-acrylamide], the IC50 in assay [1] (Homo sapiens, SK-BR-3, 72 h) amounted to 64 nM; in assay [2] (Homo sapiens, A-431, 72 h), 11 nM; at VEGFR2 (KDR) it was 154 nM; in assay [3] (Homo sapiens, 96 h) it was 87 nM; in assay [4] (Homo sapiens, 72 h), 2.02 µM; against EGFR1 (HER-1), 3 nM.
In the case of `C=CC(=O)Nc1cc2c(Nc3ccc(Br)cc3F)ncnc2cc1OCCNC(=O)C1CCCN1C(C)=O` (stereo not drawn) [Example 105, 1-acetyl-pyrrolidine-2-carboxylic acid {2-[6-acryloylamino-4-(4-bromo-2-fluoro-phenylamino)-quinazolin-7-yloxy]-ethyl}-amide], the IC50 in assay [1] (Homo sapiens, SK-BR-3, 72 h) worked out at 100 nM; in assay [2] (Homo sapiens, A-431, 72 h), 30 nM; against VEGFR2 (KDR) it was 654 nM; in assay [3] (Homo sapiens, 96 h), 654 nM; in assay [4] (Homo sapiens, 72 h) it was 6.7 µM; at EGFR1 (HER-1), 25 nM.
As for `C=CC(=O)Nc1cc2c(Nc3ccc(Br)cc3F)ncnc2cc1OCC1CCN(C(=O)NCCC)CC1` [Example 9, 4-[6-acryloylamino-4-(4-bromo-2-fluoro-phenylamino)-quinazolin-7-yloxymethyl]-piperidin-1-carboxylic acid propylamide], the half-inhibitory concentration (IC50) amounted to 266 nM in assay [1] (Homo sapiens, SK-BR-3, 72 h); 51 nM in assay [2] (Homo sapiens, A-431, 72 h); 45 nM at VEGFR2 (KDR); 48 nM in assay [3] (Homo sapiens, 96 h); 2.58 µM in assay [4] (Homo sapiens, 72 h); 36 nM against EGFR1 (HER-1).
For `C=CC(=O)Nc1cc2c(Nc3ccc(Br)cc3F)ncnc2cc1OCCNC(=O)C(=O)OCC` [Example 71, {2-[6-acryloylamino-4-(4-bromo-2-fluoro-phenylamino)-quinazolin-7-yloxy]-ethyl}-oxalamic acid ethylester], the IC50 in assay [1] (Homo sapiens, SK-BR-3, 72 h) amounted to 4400 nM; in assay [2] (Homo sapiens, A-431, 72 h), 100 nM; on VEGFR2 (KDR), 251 nM; in assay [3] (Homo sapiens, 96 h), 286 nM; in assay [4] (Homo sapiens, 72 h), 2.98 µM; against EGFR1 (HER-1) it was 98 nM.
As for `C=CC(=O)Nc1cc2c(Nc3ccc(Br)cc3F)ncnc2cc1OCC(CC)NC(=O)CN(C)C` (stereo not drawn) [Example 160, N-{4-(4-bromo-2-fluoro-phenylamino)-7-[2-(2-dimethylamino-acetylamino)-butoxy]-quinazolin-6-yl}-acrylamide], the 50% inhibitory concentration (IC50) was 96 nM in assay [1] (Homo sapiens, SK-BR-3, 72 h); 55 nM in assay [2] (Homo sapiens, A-431, 72 h); 984 nM against VEGFR2 (KDR); 867 nM in assay [3] (Homo sapiens, 96 h); 6.55 µM in assay [4] (Homo sapiens, 72 h); 23 nM at EGFR1 (HER-1).
`C=CC(=O)Nc1cc2c(Nc3cccc(Cl)c3F)ncnc2cc1OCCNC(=O)CN(C)C` [Example 117, N-[4-(3-chloro-2-fluoro-phenylamino)-7-{2-[2-(dimethylamino)-acetamido]-ethoxy}quinazolin-6-yl]-acrylamide]: the half-inhibitory concentration (IC50) in assay [1] (Homo sapiens, SK-BR-3, 72 h) is 1260 nM; in assay [2] (Homo sapiens, A-431, 72 h), 1240 nM; against VEGFR2 (KDR), 945 nM; in assay [3] (Homo sapiens, 96 h) it was 998 nM; in assay [4] (Homo sapiens, 72 h), 10 µM; against EGFR1 (HER-1), 924 nM.
With `C=CC(=O)Nc1cc2c(Nc3ccc(Br)cc3F)ncnc2cc1OCCNC(=O)C(C)N(C)C` (stereo not drawn) [Example 58, N-{4-(4-bromo-2-fluoro-phenylamino)-7-[2-(2-dimethylamino-propionylamino)-ethoxy]-quinazolin-6-yl}-acrylamide], the IC50 in assay [1] (Homo sapiens, SK-BR-3, 72 h) came out at 395 nM; in assay [2] (Homo sapiens, A-431, 72 h), 116 nM; against VEGFR2 (KDR), 954 nM; in assay [3] (Homo sapiens, 96 h) it was 945 nM; in assay [4] (Homo sapiens, 72 h), 5.51 µM; against EGFR1 (HER-1) it was 125 nM.
On to `C=CC(=O)Nc1cc2c(Nc3ccc(Br)c(Cl)c3F)ncnc2cc1OCC(C)NC(=O)CN(C)C` (stereo not drawn) [Example 157], for which the IC50 in assay [1] (72 hours) came out at 165 nM; in assay [2] (72 hours) it was 95 nM; on VEGFR2 (KDR) it was 687 nM; in assay [3] (96 hours) it was 752 nM; in assay [4] (72 hours), 8.36 µM; against EGFR1 (HER-1) it was 88 nM.
Regarding `C=CC(=O)Nc1cc2c(Nc3ccc(Br)cc3F)ncnc2cc1OCC1CCN(C(C)=O)CC1` [Example 1, N-[7-(1-acetyl-piperidin-4-ylmethoxy)-4-(4-bromo-2-fluoro-phenylamino)-quinazolin-6-yl]-acrylamide], the half-inhibitory concentration (IC50) in assay [1] (Homo sapiens, SK-BR-3, 72 h) is 283 nM; in assay [2] (Homo sapiens, A-431, 72 h), 48 nM; on VEGFR2 (KDR), 131 nM; in assay [3] (Homo sapiens, 96 h), 85 nM; in assay [4] (Homo sapiens, 72 h) it was 3.06 µM; against EGFR1 (HER-1), 3 nM.
Regarding `C=CC(=O)Nc1cc2c(Nc3ccc(Br)c(Cl)c3F)ncnc2cc1OC[C@H](C)NC(=O)CN(C)C` [Example 163, (S)—N-4-(4-bromo-3-chloro-2-fluoro-phenylamino)-7-[2-(2-dimethylamino-acetylamino)-propoxy]-quinazolin-6-yl-acrylamide], the IC50 in assay [1] (72 hours) is 45 nM; in assay [2] (72 hours), 18 nM; on VEGFR2 (KDR), 722 nM; in assay [3] (96 hours) it was 735 nM; in assay [4] (72 hours), 10 µM; at EGFR1 (HER-1) it was 12 nM.
Take `C=CNC(=O)NCCOc1cc2ncnc(Nc3ccc(Br)cc3F)c2cc1NC(=O)C=C` [Example 39, N-{4-(4-bromo-2-fluoro-phenylamino)-7-[2-(3-vinyl-ureido)-ethoxy]-quinazolin-6-yl}-acrylamide]: the IC50 came out at 176 nM in assay [1] (Homo sapiens, SK-BR-3, 72 h); 28 nM in assay [2] (Homo sapiens, A-431, 72 h); 264 nM at VEGFR2 (KDR); 325 nM in assay [3] (Homo sapiens, 96 h); 4.52 µM in assay [4] (Homo sapiens, 72 h); 29 nM at EGFR1 (HER-1).
With `C=CC(=O)Nc1cc2c(Nc3ccc(Br)cc3F)ncnc2cc1OCCNC(N)=O` [Example 24, N-[4-(4-bromo-2-fluoro-phenylamino)-7-(2-ureido-ethoxy)-quinazolin-6-yl]-acrylamide], the IC50 in assay [1] (Homo sapiens, SK-BR-3, 72 h) turned out to be 75 nM; in assay [2] (Homo sapiens, A-431, 72 h), 40 nM; on VEGFR2 (KDR), 250 nM; in assay [3] (Homo sapiens, 96 h) it was 90 nM; in assay [4] (Homo sapiens, 72 h), 7.6 µM; on EGFR1 (HER-1), 4 nM.
Take `C=CC(=O)Nc1cc2c(Nc3ccc(Br)cc3F)ncnc2cc1OCCNC(=O)C=CCN(C)C` [Example 53, 4-dimethylamino-but-2-enoic acid {2-[6-acryloylamino-4-(4-bromo-2-fluoro-phenylamino)-quinazolin-7-yloxy]-ethyl}-amide]: the half-inhibitory concentration (IC50) in assay [1] (Homo sapiens, SK-BR-3, 72 h) came to 223 nM; in assay [2] (Homo sapiens, A-431, 72 h) it was 12 nM; at VEGFR2 (KDR), 875 nM; in assay [3] (Homo sapiens, 96 h) it was 964 nM; in assay [4] (Homo sapiens, 72 h), 4.76 µM; at EGFR1 (HER-1), 16 nM.
`C=CC(=O)Nc1cc2c(Nc3ccc(Cl)cc3Cl)ncnc2cc1OCCNC(C)=O` [Example 113, N-[7-(2-acetylamino-ethoxy)-4-(4-chloro-2-chloro-phenylamino)-quinazolin-6-yl]-acrylamide]: the half-maximal inhibitory concentration (IC50) in assay [1] (Homo sapiens, SK-BR-3, 72 h) was determined as 289 nM; in assay [2] (Homo sapiens, A-431, 72 h) it was 58 nM; against VEGFR2 (KDR), 268 nM; in assay [3] (Homo sapiens, 96 h), 369 nM; in assay [4] (Homo sapiens, 72 h), 2.21 µM; against EGFR1 (HER-1), 49 nM.

For the origin of these results see patent US8846699B2, “Quinazoline derivatives as a multiplex inhibitor and method for the preparation thereof” (Hanmi Pharm. Co., Ltd., priority 2005, dated 2014).
